Reference: publication PMC5625161 (Pharmacology Research & Perspectives, 2017)
Where two headings read alike, the source gives them in different places. Marks after values point to notes of the source that are not given here.

Experiments:
Caco‐2 cell monolayers = experiment: Metformin apparent permeability across polarised Caco-2 cell monolayers with and without inhibitors; type: in vitro ADME; settings: therapeutic intestinal concentrations of inhibitor
Method: (§1) Caco‐2 cells between passage numbers 50–60 were used for experiments. Cells were seeded in cell culture medium (consisting of DMEM supplemented with 10% (w/v) fetal bovine serum, 2 mmol/L L‐glutamine, 1% (v/v) nonessential amino acids, 50 U/mL penicillin and 50 μg/mL streptomycin) onto Millicell‐96 multiwell insert plates at 1 × 10^5 cells/cm^2 and cultured at 37°C in an atmosphere of 5% CO2 with a relative humidity of 95 %. Media was changed every two or three days and plates were used for transport studies on day 20 postseeding. Cell monolayers were washed twice with prewarmed (37°C) transport buffer (HBSS containing 25 mmol/L HEPES and 4.45 mmol/L glucose, pH 7.4) for basolateral compartments and prewarmed MES‐transport buffer (HBSS containing 10 mmol/L MES and 4.45 mmol/L glucose, pH 6.5) for apical compartments. […] Transport buffer or MES‐transport buffer containing DMSO or test inhibitor was added to the corresponding receiver compartments. Donor and receiver solutions contained a final DMSO concentration of ≤1 % (v/v). […] The amount of lucifer yellow appearing in the receiver compartments was quantified on a fluorescence plate reader and used to calculate permeation across the cell monolayer.

[1] = Perpetrator drug plasma Cmax in clinical interaction studies with metformin; type: in vivo, human; settings: f u × C max
[2] = molecular target: T1, multidrug and toxin extrusion protein (MATE) 1 (SLC47A1) (Homo sapiens, UniProt Q96FL8); set-up: method as in Kusuhara et al. 2011; Ito et al. 2012; Müller et al. 2015; settings: ref Kusuhara et al. 2011; Ito et al. 2012; Müller et al. 2015; cited from earlier work
T1 sequence (Q96FL8 1-570): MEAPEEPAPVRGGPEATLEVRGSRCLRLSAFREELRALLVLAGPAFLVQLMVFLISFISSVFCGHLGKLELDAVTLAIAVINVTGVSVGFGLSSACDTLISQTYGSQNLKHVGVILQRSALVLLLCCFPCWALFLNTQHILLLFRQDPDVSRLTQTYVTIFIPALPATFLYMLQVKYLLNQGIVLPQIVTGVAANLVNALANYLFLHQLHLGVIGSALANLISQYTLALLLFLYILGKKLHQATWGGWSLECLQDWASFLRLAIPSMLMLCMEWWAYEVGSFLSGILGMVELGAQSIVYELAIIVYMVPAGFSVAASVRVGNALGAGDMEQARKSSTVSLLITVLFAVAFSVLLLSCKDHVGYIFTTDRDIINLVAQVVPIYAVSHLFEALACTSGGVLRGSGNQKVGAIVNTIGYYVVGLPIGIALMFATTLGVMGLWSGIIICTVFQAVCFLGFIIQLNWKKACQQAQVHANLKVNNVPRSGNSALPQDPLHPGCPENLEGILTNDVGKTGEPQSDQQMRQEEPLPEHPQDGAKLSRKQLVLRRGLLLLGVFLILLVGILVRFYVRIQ

[3] = cited from earlier work
[4] = cited from earlier work; for increase in the plasma exposure (AUC) of metformin in clinical DDIs: ref Somogyi et al. 1987, Wang et al. 2008, Grün et al. 2013, Müller et al. 2015, Kusuhara et al. 2011
[5] = molecular target: T2, human organic cation transporter (OCT) 1 (SLC22A1) (Homo sapiens, UniProt O15245); experiment: cell-based
T2 sequence (O15245 1-554): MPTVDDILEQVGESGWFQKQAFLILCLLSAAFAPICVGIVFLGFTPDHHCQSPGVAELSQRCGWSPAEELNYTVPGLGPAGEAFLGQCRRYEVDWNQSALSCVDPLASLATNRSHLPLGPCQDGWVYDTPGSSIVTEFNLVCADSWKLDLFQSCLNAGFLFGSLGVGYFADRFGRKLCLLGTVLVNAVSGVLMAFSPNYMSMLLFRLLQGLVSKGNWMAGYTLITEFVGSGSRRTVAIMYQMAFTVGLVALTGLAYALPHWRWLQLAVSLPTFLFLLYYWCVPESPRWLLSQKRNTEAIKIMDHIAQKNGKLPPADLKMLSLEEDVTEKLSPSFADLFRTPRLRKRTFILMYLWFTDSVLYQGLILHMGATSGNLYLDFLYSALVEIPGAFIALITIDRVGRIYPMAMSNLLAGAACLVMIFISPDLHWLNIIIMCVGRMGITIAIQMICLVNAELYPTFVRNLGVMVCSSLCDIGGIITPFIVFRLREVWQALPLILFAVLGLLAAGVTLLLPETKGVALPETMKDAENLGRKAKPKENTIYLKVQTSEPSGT

[6] = read-out: [C max] mean steady-state total plasma concentration, cited from earlier work
[7] = molecular target: T1, multidrug and toxin extrusion protein (MATE) 1 (SLC47A1); experiment: In vitro SLC transporter inhibition: MATE1-mediated [14C]-metformin uptake; type: cell-based
[8] = Metformin apparent permeability across polarised Caco-2 cell monolayers with and without inhibitors; type: in vitro ADME; settings: human, Caco-2, pH 6.5
Method: as §1

[9] = Metformin human mass balance and renal clearance; type: in vivo
[10] = molecular target: T1, multidrug and toxin extrusion protein (MATE) 1 (SLC47A1); settings: MATE1-mediated metformin uptake, 1.5 min, 37°C; ±SE from fitting
MATE2‐K (SLC47A2) = MATE2‐K (SLC47A2) (Homo sapiens, UniProt Q86VL8); settings: MATE2-K-mediated metformin uptake, 1.5 min, 37°C; ±SE from fitting
MATE2‐K (SLC47A2), sequence (Q86VL8 1-566 isoform Q86VL8-3): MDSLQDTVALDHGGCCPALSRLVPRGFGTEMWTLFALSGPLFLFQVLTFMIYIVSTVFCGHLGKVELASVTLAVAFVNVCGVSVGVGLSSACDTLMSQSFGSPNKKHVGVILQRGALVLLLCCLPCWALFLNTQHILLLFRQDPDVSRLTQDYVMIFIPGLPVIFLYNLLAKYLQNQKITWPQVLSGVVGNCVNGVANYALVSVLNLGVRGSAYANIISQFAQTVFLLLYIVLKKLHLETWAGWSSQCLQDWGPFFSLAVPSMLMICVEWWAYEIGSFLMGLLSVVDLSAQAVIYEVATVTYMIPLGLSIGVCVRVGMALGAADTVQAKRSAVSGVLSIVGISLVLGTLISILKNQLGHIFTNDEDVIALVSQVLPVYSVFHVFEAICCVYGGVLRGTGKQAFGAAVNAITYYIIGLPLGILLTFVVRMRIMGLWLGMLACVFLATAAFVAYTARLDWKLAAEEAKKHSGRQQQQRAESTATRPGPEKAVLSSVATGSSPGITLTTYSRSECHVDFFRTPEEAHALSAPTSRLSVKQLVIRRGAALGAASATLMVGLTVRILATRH

[11] = oral metformin human mass balance, average; ref Pentikäinen et al. 1979; Tucker et al. 1981; Kusuhara et al. 2011; cited from earlier work
Mate1 = tested on: Mate1; set-up: method as in Tsuda et al. 2009a; settings: intravenous administration; ref Tsuda et al. 2009a; cited from earlier work
Oct1/2 = tested on: Oct1/2; set-up: method as in Higgins et al. 2012; settings: oral administration; ref Higgins et al. 2012; cited from earlier work
[12] = first-listed (or only) clinical study

SMILES: CN/C(=N/CCSCc1nc[nH]c1C)NC#N [Cimetidine, cimetidine]
- effect on enhancing metformin absorptive permeability across Caco‐2 cells (Caco‐2 cell monolayers): absence of an effect
- [C max free] [1, 12]: 7.68 µM
- [C max free] ([1]; second-listed clinical study): 4.08 µM
- mode of inhibition of MATE1 [2]: competitive inhibitors
- f u (fraction unbound) ([3]; ref Somogyi and Gugler (1983)): 0.80 ^a
- increase in the plasma exposure (AUC) of metformin in clinical DDIs [4]: < 2 fold
- IC50 [5]: 275 ± 32.2 µM
- Cmax ([6]; cimetidine 400 mg, first value, study with metformin 250 mg, ref Somogyi et al. (1987)): 9.6 µM
- Cmax ([6]; cimetidine 400 mg, second value, study with metformin 500 mg, ref Wang et al. (2008)): 5.1 µM

SMILES: CCc1nc(N)nc(N)c1-c1ccc(Cl)cc1 [Pyrimethamine, pyrimethamine]
- MATE1 K i ([7]; equates to IC50 (probe ≪≪ Km, assuming competitive inhibition)): 0.131 µM
- IC50 (≅K i) values MATE1 ([7]; probe [14C]-metformin 100 μmol/L, 1.5 min, mean ± SD of three experiments): 0.131 ± 0.0401 µM
- effect on enhancing metformin absorptive permeability across Caco‐2 cells (Caco‐2 cell monolayers): absence of an effect
- [C max free] [1, 12]: 0.298 µM
- mode of inhibition of MATE1 [2]: competitive inhibitors
- increase in the plasma exposure (AUC) of metformin in clinical DDIs [4]: < 2 fold
- IC50 [5]: 4.46 ± 0.77 µM
- Cmax ([6]; pyrimethamine 50 mg, study with metformin 250 mg, ref Kusuhara et al. (2011)): 2.29 µM

SMILES: COc1cc(Cc2cnc(N)nc2N)cc(OC)c1OC [Trimethoprim, trimethoprim]
- effect on enhancing metformin absorptive permeability across Caco‐2 cells (Caco‐2 cell monolayers): absence of an effect
- [C max free] [1, 12]: 7.84 µM
- [C max free] ([1]; second-listed clinical study): 4.26 µM
- f u (fraction unbound) ([3]; ref Bactrim and Daraprim drug labels (Drugs@FDA database)): 0.56
- increase in the plasma exposure (AUC) of metformin in clinical DDIs [4]: < 2 fold

SMILES: CN(C)C(=N)N=C(N)N [metformin, Metformin]
- Papp A→B at 90 min ([8]; read-out: Papp A‐B (apical to basolateral)): ~0.5 ×10⁻⁶ cm/s
- Papp B→A at 90 min ([8]; read-out: Papp B‐A (basolateral to apical)): ~0.5 ×10⁻⁶ cm/s
- fraction excreted value, ƒe, renal active transport ([9]; derived from intravenous administration of metformin): 0.66
- fraction excreted value, ƒe, renal active transport ([9]; derived from oral administration of metformin): 0.39
- K m [10]: 4.565 ± 0.903 mM
- V max [10]: 141000 ± 12283 pmol/min/mg protein
- K m (MATE2‐K (SLC47A2)): 2.986 ± 0.817 mM
- V max (MATE2‐K (SLC47A2)): 32147 ± 3401 pmol/min/mg protein
- share of the dose eliminated in urine [11]: 52%
- increase in metformin AUC in Mate1(−/−) null mice compared with wildtype (Mate1): 4.2 fold
- increase in metformin AUC in Oct1/2(−/−) mice (Oct1/2): 2.9 fold

SMILES: CNC(=C[N+](=O)[O-])NCCSCc1csc(CN(C)C)n1 [nizatidine]
- effect on metformin AUC in clinical interaction study ([4]; ref Morrissey et al. 2016): did not increase metformin AUC
